Test results as given in patent EP2399598B1, “Blockade of CCL18 signaling via CCR6 as a therapeutic option in fibrotic diseases and cancer” (Universitätsklinikum Freiburg, priority 2010, dated 2014).
Entries after “also recorded” stand apart in the source; their conditions may differ.

System: CCR6
Assay: Inhibition of CCL18-induced CCR6 down-regulation on mononuclear cells (flow cytometry)
Type: cell-based
Details: freshly isolated human lymphocytes/PBMNC, 20 minutes, FACS; for CCL18 induced down-regulation of CCR6 expression: CCL18 10 ng/ml plus inhibitor 100 ng/ml
Method: Freshly isolated mononuclear cells were incubated for 20 minutes with 10 ng/ml of CCL18, 100ng/ml of the inhibitor peptide PS-AU-105 (polypeptide according to SEQ ID NO.:1), a combination of both or were left untreated. The incubation was performed in RPMI1640 with 10% fetal calf serum and 100 U/ml Streptomycin/Penicillin at 37°C. After the incubation, the cells were centrifugated and the supernatant was discarded. The cells were fixed with 4% paraformaldehyde for 5 minutes on ice and washed twice in PBS containing 1% FCS. After fixation the cells were stained using a fluorescein-conjugated antibody against CCR6 (R&D systems, Wiesbaden, FRG) and analyzed by flow cytometry (FACScalibur and Quantiquest; both Beckon Dickinson, Franklin Lakes, USA).
This CCL18 induced redaction of CCR6 expression is diminished in the presence of the inhibitor peptide PS-AU-105 (polypeptide according to SEQ ID No.: 1).

PS-AU-105: inhibitor peptide, polypeptide according to SEQ ID NO.:1; 29 amino acids, artificial, peptide inhibitor of CCR6 (EDCCLVYTSWQIHPKFIVDYSETSPQCPK)
CCL18 induced down-regulation of CCR6 expression: diminished; also recorded: fails to down-regulate the CCR6^+ sub-population | CCL18 induced down-regulation of CCR6 expression (listed as PS-AU-1015): this down-regulation docs not occur | CCR6 expression, inhibitor only (inhibitor 100 ng/ml alone): no effect
